In patent publication US20260217701A1, “SELECTIVE BET INHIBITORS AND USES THEREOF” (Tay Therapeutics Limited, priority 2022, published 2026):

Legend:
[1] = SLE (lupus) model: body weight; assay type: in vivo, MRL/MpJ-Faslpr mice
Method: Female MRL/MpJ-Faslpr mice (The Jackson Laboratory) were used to assess the efficacy of Compound A in treating lupus. Starting when animals were 10 weeks of age, protein concentration in urine was measured using urine dipsticks.
At the start of the study, each group in the study had two animals that were 9 weeks old, and all others were 10 weeks old. Dosing of all animals with the test compounds began when the older animals were 11 weeks old. […] […] Dosing was at a consistent time each dosing day throughout the study.
Compound A may be formulated as illustrated in Experimental Method A (see Table 2E.). […] A stock solution of Compound A in DMSO (stock solution concentration of Compound A of 40 mg/mL) was prepared and aliquots for weekly preparations were frozen at −20° C. On each preparation day, a stock solution aliquot was thawed and diluted with other vehicle components to the desired concentration. Formulated Compound A and vehicle were at room temperature for dosing.
The study began when the older animals were 11 weeks old, and concluded when the older animals were 19 weeks old. Body weight was recorded once a week, with the exception of two weight measurements taken the first week of the study (when the older animals were 11 weeks old). Proteinuria was measured in the urine of animals with urine dipsticks once a week, starting when the older animals were 10 weeks old. […] Blood samples were taken retro-orbitally at the start of the study to establish a baseline (15 animals, 3 per group), and when the older animals were 16 weeks (all animals) and when animals were 19 weeks (all animals) at the conclusion of the study. Blood urea nitrogen (BUN) was measured in all animals at study termination in blood samples. After blood collection, animals were euthanized, perfused with PBS, and the left kidneys were collected and weighed and fixed in 10% buffered formalin. Left kidneys were then processed to a formalin-fixed, paraffin-embedded (FFPE) block, and histology was analyzed in Periodic Acid-Schiff-stained sections (1 section per slide), using the criteria described in Alperovich et al., Lupus, 16:18-24 (2007). Right kidneys were weighed and snap-frozen at −80° C. Spleens were also collected and weighed. SLE in animals treated with a BET inhibitor and vehicle.

[2] = Dog PK study #4 (Compound A PO daily 14 days, 1/3/10 mg/kg; toxicokinetics, platelet counts); assay type: in vivo, beagle dogs; settings: for Mean Platelet Count: Day 15 following 14 days of administration; for concentration at 0.5 h / concentration at 1 h / concentration at 2 h / concentration at 4 h / concentration at 8 h / concentration at 24 h: beagle, dog, plasma, oral, after daily administration for 14 days
Method: The different doses of compound A were orally administered to animals (n=2/group, one male and one female animal) daily for 14 days.
Blood samples were collected at 0.5, 1, 2, 4, 8, and 24 hours after administration of Compound A on Day 14, and EDTA-K2 was used as an anticoagulant. Within 30 minutes of collection, the samples were centrifuged at approximately 2000×g for 10 minutes at 4° C. to obtain blood plasma. The samples were immediately divided into aliquots, transferred to cryogenic vials, and stored in a freezer at −75+15° C. prior to analysis.
The concentration of Compound A in the blood plasma was determined through liquid chromatography-mass spectrometry (LC-MS). The experiments were conducted on a Shimadzu UPLC and AB API 6500+LC/MS/MS with a Water […] UPLC HSS T3 1.8 μm (50×2.1 mm) column. A gradient of 0.1% formic acid in water/0.1% formic acid in acetonitrile was used as the mobile phase. The sample injection volume was 1 μL. The flow rate was 0.6 mL/min.
The desired serial concentrations of working solutions were achieved by diluting 30 μL of sample (control standard, QC standard, test samples) with 30 μL of a 50% acetonitrile in water solution (for double blanks) or 30 μL of the IS mixture (Compound B 80 ng/ml in 50% acetonitrile). 240 μL of 100% acetonitrile was then added and samples were vortexed for 5 min and centrifuged at 3200×g at 4° C. for 10 min. 100 μL of the supernatant was transferred and then diluted with 50% acetonitrile. Samples were then vortexed for about 5 min before injection into the LC/MS/MS system for quantitative analysis.

[3] = both sexes, 1 mg/kg, Pooled Mean
[4] = both sexes, 3 mg/kg, Pooled Mean
[5] = both sexes, 10 mg/kg, Pooled Mean

Cn1cc(-c2ccccc2)c(-c2cn(C)c(=O)c3[nH]c(-c4cnn(C(F)(F)F)c4)cc23)cc1=O [Compound A, 6-methyl-4-(1-methyl-2-oxo-5-phenyl-1,2-dihydropyridin-4-yl)-2-(1-(trifluoromethyl)-1H-pyrazol-4-yl)-1,6-dihydro-7H-pyrrolo[2,3-c]pyridin-7-one]
Relative end body weight (% of Week 11) ± SEM ([1]; 1 mg/kg): 114.5% ± 1.5% | Weight gain relative to control groups ([1]; 1 mg/kg and 10 mg/kg): improved weight gains relative to the control groups | Relative end body weight (% of Week 11) ± SEM ([1]; 3 mg/kg): 110.7% ± 2.1% | Relative end body weight (% of Week 11) ± SEM ([1]; 10 mg/kg): 114.4% ± 1.6% | Mean Body Weight ([1]; Compound A 1 mg/kg PO QD, Week 11): 35.2 g | Mean Body Weight ([1]; Compound A 1 mg/kg PO QD, Week 12): 36.4 g | Mean Body Weight ([1]; Compound A 1 mg/kg PO QD, Week 13): 37.6 g | Mean Body Weight ([1]; Compound A 1 mg/kg PO QD, Week 14): 38.5 g | Mean Body Weight ([1]; Compound A 1 mg/kg PO QD, Week 15): 38.9 g | Mean Body Weight ([1]; Compound A 1 mg/kg PO QD, Week 16): 40.0 g | Mean Body Weight ([1]; Compound A 1 mg/kg PO QD, Week 17): 39.5 g | Mean Body Weight ([1]; Compound A 1 mg/kg PO QD, Week 18): 39.7 g | Mean Body Weight ([1]; Compound A 1 mg/kg PO QD, Week 19): 40.2 g | Mean Body Weight ([1]; Compound A 3 mg/kg PO QD, Week 11): 35.0 g | Mean Body Weight ([1]; Compound A 3 mg/kg PO QD, Week 12): 35.0 g | Mean Body Weight ([1]; Compound A 3 mg/kg PO QD, Week 13): 36.5 g | Mean Body Weight ([1]; Compound A 3 mg/kg PO QD, Week 14): 37.4 g | Mean Body Weight ([1]; Compound A 3 mg/kg PO QD, Week 15): 37.9 g | Mean Body Weight ([1]; Compound A 3 mg/kg PO QD, Week 16): 38.7 g | Mean Body Weight ([1]; Compound A 3 mg/kg PO QD, Week 17): 38.6 g | Mean Body Weight ([1]; Compound A 3 mg/kg PO QD, Week 18): 38.1 g | Mean Body Weight ([1]; Compound A 3 mg/kg PO QD, Week 19): 38.6 g | Mean Body Weight ([1]; Compound A 10 mg/kg PO QD, Week 11): 35.1 g | Mean Body Weight ([1]; Compound A 10 mg/kg PO QD, Week 12): 35.6 g | Mean Body Weight ([1]; Compound A 10 mg/kg PO QD, Week 13): 37.1 g | Mean Body Weight ([1]; Compound A 10 mg/kg PO QD, Week 14): 37.8 g | Mean Body Weight ([1]; Compound A 10 mg/kg PO QD, Week 15): 38.8 g | Mean Body Weight ([1]; Compound A 10 mg/kg PO QD, Week 16): 39.3 g | Mean Body Weight ([1]; Compound A 10 mg/kg PO QD, Week 17): 39.3 g | Mean Body Weight ([1]; Compound A 10 mg/kg PO QD, Week 18): 39.4 g | Mean Body Weight ([1]; Compound A 10 mg/kg PO QD, Week 19): 39.9 g | exposure difference between male and female animals ([2]; Day 14): no exposure differences | plasma concentration relative to BD2 BRD4 and BD1 BRD4 free EC50 ([2]; Day 14, 1, 3 and 10 mg/kg, all time points over 24 hours): remained well above the BD2 BRD4 EC50 | time of peak (or plateau) plasma concentration ([2]; Day 14, all animals): approximately 2 hours | platelet counts relative to vehicle ([2]; Day 15, after 14 days of 1, 3 or 10 mg/kg): no appreciable difference in platelet counts | Mean Platelet Count ([2]; 1 mg/kg): 260750 µL⁻¹ | Mean Platelet Count ([2]; 3 mg/kg): 241000 µL⁻¹ | Mean Platelet Count ([2]; 10 mg/kg): 293000 µL⁻¹ | concentration at 0.5 h ([2]; 1 mg/kg, Female): 27.8 ng/mL | concentration at 1 h ([2]; 1 mg/kg, Female): 57.9 ng/mL | concentration at 2 h ([2]; 1 mg/kg, Female): 70.1 ng/mL | concentration at 4 h ([2]; 1 mg/kg, Female): 55.9 ng/mL | concentration at 8 h ([2]; 1 mg/kg, Female): 25.7 ng/mL | concentration at 24 h ([2]; 1 mg/kg, Female): 10.3 ng/mL | concentration at 0.5 h ([2]; 1 mg/kg, Male): 31.6 ng/mL | concentration at 1 h ([2]; 1 mg/kg, Male): 56.7 ng/mL | concentration at 2 h ([2]; 1 mg/kg, Male): 60.8 ng/mL | concentration at 4 h ([2]; 1 mg/kg, Male): 44.8 ng/mL | concentration at 8 h ([2]; 1 mg/kg, Male): 24.5 ng/mL | concentration at 24 h ([2]; 1 mg/kg, Male): 25.1 ng/mL | concentration at 0.5 h ([2]; 3 mg/kg, Female): 152 ng/mL | concentration at 1 h ([2]; 3 mg/kg, Female): 324 ng/mL | concentration at 2 h ([2]; 3 mg/kg, Female): 320 ng/mL | concentration at 4 h ([2]; 3 mg/kg, Female): 230 ng/mL | concentration at 8 h ([2]; 3 mg/kg, Female): 87.5 ng/mL | concentration at 24 h ([2]; 3 mg/kg, Female): 14.2 ng/mL | concentration at 0.5 h ([2]; 3 mg/kg, Male): 98.3 ng/mL | concentration at 1 h ([2]; 3 mg/kg, Male): 201 ng/mL | concentration at 2 h ([2]; 3 mg/kg, Male): 265 ng/mL | concentration at 4 h ([2]; 3 mg/kg, Male): 245 ng/mL | concentration at 8 h ([2]; 3 mg/kg, Male): 165 ng/mL | concentration at 24 h ([2]; 3 mg/kg, Male): 33 ng/mL | concentration at 0.5 h ([2]; 10 mg/kg, Female): 1130 ng/mL | concentration at 1 h ([2]; 10 mg/kg, Female): 1630 ng/mL | concentration at 2 h ([2]; 10 mg/kg, Female): 1680 ng/mL | concentration at 4 h ([2]; 10 mg/kg, Female): 1070 ng/mL | concentration at 8 h ([2]; 10 mg/kg, Female): 342 ng/mL | concentration at 24 h ([2]; 10 mg/kg, Female): 61.6 ng/mL | concentration at 0.5 h ([2]; 10 mg/kg, Male): 1010 ng/mL | concentration at 1 h ([2]; 10 mg/kg, Male): 1450 ng/mL | concentration at 2 h ([2]; 10 mg/kg, Male): 1490 ng/mL | concentration at 4 h ([2]; 10 mg/kg, Male): 1350 ng/mL | concentration at 8 h ([2]; 10 mg/kg, Male): 646 ng/mL | concentration at 24 h ([2]; 10 mg/kg, Male): 145 ng/mL | concentration at 0.5 h [2, 3]: 29.7 ng/mL | concentration at 1 h [2, 3]: 57.3 ng/mL | concentration at 2 h [2, 3]: 65.5 ng/mL | concentration at 4 h [2, 3]: 50.4 ng/mL | concentration at 8 h [2, 3]: 25.1 ng/mL | concentration at 24 h [2, 3]: 17.7 ng/mL | concentration at 0.5 h [2, 4]: 125 ng/mL | concentration at 1 h [2, 4]: 262 ng/mL | concentration at 2 h [2, 4]: 292 ng/mL | concentration at 4 h [2, 4]: 238 ng/mL | concentration at 8 h [2, 4]: 126 ng/mL | concentration at 24 h [2, 4]: 23.6 ng/mL | concentration at 0.5 h [2, 5]: 1070 ng/mL | concentration at 1 h [2, 5]: 1540 ng/mL | concentration at 2 h [2, 5]: 1580 ng/mL | concentration at 4 h [2, 5]: 1210 ng/mL | concentration at 8 h [2, 5]: 494 ng/mL | concentration at 24 h [2, 5]: 103 ng/mL
